This series is described as follows: gradient 5% acetonitrile 3 min, to 50% in 2 min, to 85% in 15 min, held 3 min, 100 µL/min. Particulars: column: Zorbax Extend-C18 2.1 x 50 mm; eluents: water / acetonitrile, 0.1% formic acid. In outline:
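A Zorbax Extend-C18 column (2.1 × 50 mm, 1.8 μm) run at 100 μL/min with water and acetonitrile, both containing 0.1% formic acid, separated mixtures of ~100 pure standards. The HPLC was coupled to a quadrupole time-of-flight mass spectrometer operated in positive and negative ionization mode, with dead and dwell volumes of 40 μL and 900 μL. Each retention time was taken from a computationally picked adduct peak that was then manually inspected.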
Consider `CN1CCN(C(=O)c2nnc(-c3ccc(S(=O)(=O)N4CCCC4)cc3)o2)CC1`, for which the RP-LC retention time amounted to 594 s.

With `Cc1ccc(NC(=O)C2(C)Oc3cccnc3N(C)C2=O)c(C)c1` (stereo not drawn), the RP-LC retention time is 816 s.

`Cc1c(-c2ccc(-c3ccccc3F)cc2)nc2ccc(F)cc2c1C(=O)O` yielded an RP-LC retention time of 967 s.

On to `N#Cc1cccc(N2C=C(C(=O)N3CCCCC3)S(=O)(=O)c3ccc(F)cc32)c1`, for which the RP-LC retention time came out at 827 s.

As for `COc1cc(Cl)c(NC(=O)Cn2cc(-c3nnc(C)o3)c3ccccc32)c(OC)c1`, the RP-LC retention time was 836 s.

`CN(CC1CCOCC1)S(=O)(=O)Cc1ccccc1Cl` showed an RP-LC retention time of 834 s.

Compound `O=C(C1CCCN(c2ncnc3c2nc2n3CCCCC2)C1)N1CCCCCC1` (stereo not drawn) displayed an RP-LC retention time of 766 s.

In the case of `Cc1cccc(-c2noc(C3CCCN3S(=O)(=O)c3ccc(Cl)cc3C)n2)c1` (stereo not drawn), the RP-LC retention time is 1300 s.

In turn, `CCNC(=O)c1n[nH]c2c1CN(C(=O)c1ccc3c(c1)OCO3)CC2` gave an RP-LC retention time of 634 s.

The compound `COc1cc(-c2nc3nc4ccccc4nc3n2CC2CCCO2)cc(OC)c1OC` (stereo not drawn) had an RP-LC retention time of 795 s.

As for `O=C(CSCc1ccccc1)NCCNC(=O)c1ccc(NC(=O)C2CC2)cc1`, the RP-LC retention time came to 683 s.

As for `CCNC(=O)C1CCCN(c2nc3ncn(CC(=O)Nc4cc(F)cc(F)c4)c(=O)c3s2)C1` (stereo not drawn), the RP-LC retention time is 688 s.

The compound `O=C([C@@H]1C[C@H](F)CN1S(=O)(=O)c1ccc(F)c(F)c1)N1CCc2ccccc2C1` had an RP-LC retention time of 943 s.

Take `O=C(NCc1cnoc1-c1ccc(F)cc1)c1ccccc1F`: the RP-LC retention time amounted to 866 s.

In the case of `Cc1cc(NC(=O)C(=O)NCCc2ccc(S(N)(=O)=O)cc2)no1`, the RP-LC retention time was 613 s.

In the case of `Cc1ccc(CNC(=O)N2CC(N(CC3CC3)C3CCOCC3)C2)cc1`, the RP-LC retention time is 582 s.

`O=C(C1CC1)N1CCC2(CCCCO2)CC1` displayed an RP-LC retention time of 668 s.

Turning to `CC(C)CCN(Cc1ccco1)C(=O)Cn1nc2n(c1=O)CCC(N)CC2` (stereo not drawn), the RP-LC retention time is 633 s.

Turning to `CCOC(=O)c1cc(S(=O)(=O)N2CCCC2C(=O)N(CC)c2ccc(OC)cc2)cn1C` (stereo not drawn), the RP-LC retention time came out at 892 s.

Compound `CCc1ccc(NS(=O)(=O)c2cc(-c3[nH]ncc3C(=O)N3CCOCC3)oc2C)cc1` yielded an RP-LC retention time of 721 s.

For the compound `CCCCN1C(=O)C(NC(=O)c2ccccc2OC)(C(F)(F)F)C(C(=O)OC)=C1C` (stereo not drawn), the RP-LC retention time was found to be 1070 s.

`COc1ccc(NC2=NS(=O)(=O)C(c3ccc(OC)cc3)=C2C)cc1` returned an RP-LC retention time of 910 s.

`Cc1ccccc1-c1noc(Cc2nnc(-c3cccc(Cl)c3)o2)n1` came in with an RP-LC retention time of 1140 s.

On to `Cc1ccc(-c2cc3c4nn(CC(=O)N5CCCC5)c(=O)n4ccn3n2)cc1C`, for which the RP-LC retention time is 842 s.

For the compound `Cc1ccc(-c2ocnc2C(=O)NCCCN2CCc3ccccc3C2)s1`, the RP-LC retention time is 727 s.

With `Cc1nccnc1Sc1ccccc1`, the RP-LC retention time amounted to 956 s.

The compound `CC(C)CCNC(=O)c1cn(C)nc1S(=O)(=O)N1CCC(C)CC1` gave an RP-LC retention time of 996 s.

For the compound `CCc1nc2cc(-c3noc(-c4cccc5[nH]ccc45)n3)ccc2o1`, the RP-LC retention time stood at 1040 s.

As to `COc1ccccc1CN1CCc2nc(N3CCN(c4ccccc4F)CC3)ncc2C1`, the RP-LC retention time stood at 808 s.

`CCN(C(=O)C1CCCN(c2ncnc3c2nc2n3CCCCC2)C1)c1ccccc1` (stereo not drawn) registered an RP-LC retention time of 838 s.

As for `CCn1ccc2c(cc(C(=O)Nc3ccc(C(C)C)cc3)n2C)c1=O`, the RP-LC retention time turned out to be 902 s.

`Cc1cc(-c2nnc(SCC(N)=O)o2)c(C)o1` yielded an RP-LC retention time of 625 s.

`COc1ccc(C2C(C(=O)NCc3ccccc3OC)c3cc(OC)c(OC)cc3C(=O)N2C)cc1` (stereo not drawn) had an RP-LC retention time of 802 s.
